Measurements as given in US7994196B2, “Indazole compound and pharmaceutical use thereof” (Mitsubishi Tanabe Pharma Corporation, priority 2004, dated 2011).

Tested on: MMP-9 production
Assay: Determination of MMP-9 Production Inhibitory Activity (PMA-stimulated HEC3 cells, gelatin zymography)
Assay type: cell-based
Settings: Homo sapiens, Endothelial cell, 24 h, immortalized human vascular endothelial cells HEC3, PMA 10^-7 M stimulation, test substance at 10, 2, 0.4 and 0.08 μM, read-out: IC50 (MMP-9 production inhibitory rate)
Experimental: Immortalized human vascular endothelial cells HEC3 (supplied by Prof. Iijima of Nagoya University) were subcultured in RPMI1640 medium (Sigma Ltd.) containing 10% fetal calf serum.
The HEC3 cells (5×10^4 cells/well) were plated on a 24-well plate, and cultured in RPMI1640 medium containing 10% fetal calf serum for 24 hr. Each well was washed once with serum-free RPMI1640 medium. Then, RPMI1640 medium (250 μl/well) containing 0.05% fetal calf serum was added to each well, and the cells were further cultured for 2 hr.
The supernatant was removed, and the test substances (Example compounds shown in Table 1) diluted to various concentrations were added and incubated for 1 hr in 0.05% serum-containing RPMI1640 medium and the supernatant was removed again. A medium containing a test substance having the same concentration as in the pre-treatment and PMA (10^−7 M), which is a stimulant, was added at 250 μl/well, and the cells were further cultured for 24 hr.
After completion of the culture, water (50 μl) and 25 μl of SDS buffer (240 mM Tris-HCl (pH 6.8), 8% SDS, 40% glycerol) were added to the culture supernatant (25 μl), and the mixture (10 μl) was electrophoresed on a 7.5% polyacrylamide gel containing 0.1% gelatin.
After the electrophoresis, the gel was washed with Tris-HCl buffer (pH 7.5) containing 0.5% Triton X-100 (Sigma Ltd.) for 1 hr. The gel was immersed in an activation buffer (150 mM NaCl, 50 mM Tris-HCl (pH 7.5), 10 mM CaCl2) at 37° C. for 18 hr to activate MMP-9, and then stained with CBB. The obtained MMP-9 band was converted to numerical values by a densitometer (ATTO. Ltd.).
The MMP-9 production inhibitory rate by the test substance was calculated by the following equation. MMP-9 production inhibitory rate=100−100×{(test substance addition value−non-stimulation value)/(PMA stimulation value−non-stimulation value)}
The MMP-9 production inhibitory rates of the test substance at 10, 2, 0.4 and 0.08 μM were calculated, and IC50 value of the each test substance was determined using an analysis soft (RegExcel).

In order of rising IC50:
1. O=C(Nc1n[nH]c2ccccc12)N1CCc2c(c(=O)[nH]c3ccccc23)C1 [Ex. 104, 5-oxo-1,4,5,6-tetrahydrobenzo[c]-2,7-naphthyridine-3-carboxylic acid (1H-indazol-3-yl)amide]  10 nM
2. O=C(Nc1n[nH]c2ccccc12)N1CCn2c(nc3ccccc32)C1 [Ex. 105, 3,4-dihydropyrazino[1,2-a]benzimidazole-2-carboxylic acid (1H-indazol-3-yl)amide]  40 nM
3. O=C(Nc1n[nH]c2ccccc12)N1CCc2c(c(=O)oc3ccccc23)C1 [Ex. 103, 5-oxo-1,5-dihydro-2H-chromeno[3,4-c]pyridine-3-carboxylic acid (1H-indazol-3-yl)amide]  60 nM
4. Cc1cc(F)cc(C2(O)CCN(C(=O)Nc3n[nH]c4ccccc34)CC2)c1 [Ex. 138, 4-(3-fluoro-5-methylphenyl)-4-hydroxy-1-piperidinecarboxylic acid (1H-indazol-3-yl)amide]  100 nM
5. O=C(Nc1n[nH]c2ccccc12)N1CCc2c([nH]c(=O)c3ccccc23)C1 [Ex. 109, 6-oxo-1,4,5,6-tetrahydrobenzo[c]-1,7-naphthyridine-3-carboxylic acid (1H-indazol-3-yl)amide]  140 nM
6. O=C(Nc1n[nH]c2ccccc12)N1CCN(c2ccc(Cl)c(Cl)c2)CC1 [Ex. 98, 4-(3,4-dichlorophenyl)-1-piperazinecarboxylic acid (1H-indazol-3-yl)amide]  220 nM
7. O=C(Nc1n[nH]c2ccccc12)N1CCN(c2cccc(C(F)(F)F)c2)CC1 [Ex. 100, 4-[3-(trifluoromethyl)phenyl]-1-piperazinecarboxylic acid (1H-indazol-3-yl)amide]  230 nM
8. Cc1cc(C)cc(C2(O)CCN(C(=O)Nc3n[nH]c4ccccc34)CC2)c1 [Ex. 143, 4-(3,5-dimethylphenyl)-4-hydroxy-1-piperidinecarboxylic acid (1H-indazol-3-yl)amide]  280 nM
9. Cc1ccc(C(F)(F)F)cc1C1(O)CCN(C(=O)Nc2n[nH]c3ccccc23)CC1 [Ex. 141, 4-hydroxy-4-[2-methyl-5-(trifluoromethyl)phenyl]-1-piperidinecarboxylic acid (1H-indazol-3-yl)amide]  320 nM
10. Cc1ccc(C2(O)CCN(C(=O)Nc3n[nH]c4ccccc34)CC2)cc1Cl [Ex. 132, 4-(3-chloro-4-methylphenyl)-4-hydroxy-1-piperidinecarboxylic acid (1H-indazol-3-yl)amide]  390 nM
11. Cc1ccc(C2(O)CCN(C(=O)Nc3n[nH]c4ccccc34)CC2)cc1C [Ex. 142, 4-(3,4-dimethylphenyl)-4-hydroxy-1-piperidinecarboxylic acid (1H-indazol-3-yl)amide]  400 nM
12. Cc1cc(C2(O)CCN(C(=O)Nc3n[nH]c4ccccc34)CC2)ccc1F [Ex. 136, 4-(4-fluoro-3-methylphenyl)-4-hydroxy-1-piperidinecarboxylic acid (1H-indazol-3-yl)amide]  410 nM
13. Cc1c(Cl)cccc1C1(O)CCN(C(=O)Nc2n[nH]c3ccccc23)CC1 [Ex. 131, 4-(3-chloro-2-methylphenyl)-4-hydroxy-1-piperidinecarboxylic acid (1H-indazol-3-yl)amide]  440 nM
14. Cc1ccc(C)c(C2(O)CCN(C(=O)Nc3n[nH]c4ccccc34)CC2)c1 [Ex. 139, 4-(2,5-dimethylphenyl)-4-hydroxy-1-piperidinecarboxylic acid (1H-indazol-3-yl)amide]  450 nM
15. Cc1ccc(F)cc1C1(O)CCN(C(=O)Nc2n[nH]c3ccccc23)CC1 [Ex. 135, 4-(5-fluoro-2-methylphenyl)-4-hydroxy-1-piperidinecarboxylic acid (1H-indazol-3-yl)amide]  490 nM
16. O=C(Nc1n[nH]c2ccccc12)N1CCN(c2cc(C(F)(F)F)ccc2Cl)CC1 [Ex. 99, 4-[2-chloro-5-(trifluoromethyl)phenyl]-1-piperazinecarboxylic acid (1H-indazol-3-yl)amide]  610 nM
17. Cc1ccc(F)c(C2(O)CCN(C(=O)Nc3n[nH]c4ccccc34)CC2)c1 [Ex. 130, 4-(2-fluoro-5-methylphenyl)-4-hydroxy-1-piperidinecarboxylic acid (1H-indazol-3-yl)amide]  620 nM
18. Cc1c(C(F)(F)F)cccc1C1(O)CCN(C(=O)Nc2n[nH]c3ccccc23)CC1 [Ex. 140, 4-hydroxy-4-[2-methyl-3-(trifluoromethyl)phenyl]-1-piperidinecarboxylic acid (1H-indazol-3-yl)amide]  620 nM
19. Cc1cccc(C2(O)CCN(C(=O)Nc3n[nH]c4ccccc34)CC2)c1C [Ex. 144, 4-(2,3-dimethylphenyl)-4-hydroxy-1-piperidinecarboxylic acid (1H-indazol-3-yl)amide]  650 nM
20. CN(C)CC1c2[nH]c3ccccc3c2CCN1C(=O)Nc1n[nH]c2ccccc12 (stereo not drawn) [Ex. 108, 1-[(dimethylamino)methyl]-1,3,4,9-tetrahydro-β-carboline-2-carboxylic acid (1H-indazol-3-yl)amide]  670 nM
21. Cc1c(F)cccc1C1(O)CCN(C(=O)Nc2n[nH]c3ccccc23)CC1 [Ex. 134, 4-(3-fluoro-2-methylphenyl)-4-hydroxy-1-piperidinecarboxylic acid (1H-indazol-3-yl)amide]  680 nM
22. O=C(Nc1n[nH]c2ccccc12)N1CCC(c2cccc(C(F)(F)F)c2)CC1 [Ex. 112, 4-[3-(trifluoromethyl)phenyl]piperidine-1-carboxylic acid (1H-indazol-3-yl)amide]  700 nM
23. O=C(Nc1n[nH]c2ccccc12)N1CCC(F)(c2ccc(Cl)c(C(F)(F)F)c2)CC1 [Ex. 123, 4-[4-chloro-3-(trifluoromethyl)phenyl]-4-fluoropiperidine-1-carboxylic acid (1H-indazol-3-yl)amide]  730 nM
24. CC1CN(C(=O)Nc2n[nH]c3ccccc23)CCN1c1ccc(Cl)c(C(F)(F)F)c1 (stereo not drawn) [Ex. 117]  930 nM
